Measurements taken from ChEMBL document CHEMBL4665869, “New thiazolopyrimidine as anticancer agents: Synthesis, biological evaluation, DNA binding, molecular modeling and ADMET study” (Bioorg Med Chem Lett, 2020).
Values after ≈ are worked out from the molar mass of the structure shown.

How the values were obtained:
[1] = test system: MDA-MB-468; assay: Growth inhibition of human MDA-MB-468 cells at 10 uM relative to control; format: functional; settings: read-out: GI
[2] = test system: HCC 2998; assay: Growth inhibition of human HCC 2998 cells at 10 uM relative to control; format: functional; settings: read-out: GI
[3] = test system: TK-10; assay: Growth inhibition of human TK-10 cells at 10 uM relative to control; format: functional; settings: read-out: GI
[4] = test system: M14; assay: Growth inhibition of human M14 cells at 10 uM relative to control; format: functional; settings: read-out: GI
[5] = test system: U-251; assay: Growth inhibition of human U-251 cells at 10 uM relative to control; format: functional; settings: read-out: GI
[6] = test system: ACHN; assay: Growth inhibition of human ACHN cells at 10 uM relative to control; format: functional; settings: read-out: GI
[7] = test system: SNB-75; assay: Growth inhibition of human SNB-75 cells at 10 uM relative to control; format: functional; settings: read-out: GI
[8] = test system: MCF7; assay: Growth inhibition of human MCF7 cells at 10 uM relative to control; format: functional; settings: read-out: GI
[9] = test system: HOP-62; assay: Growth inhibition of human HOP-62 cells at 10 uM relative to control; format: functional; settings: read-out: GI
[10] = test system: UO-31; assay: Growth inhibition of human UO-31 cells at 10 uM relative to control; format: functional; settings: read-out: GI
[11] = test system: MDA-MB-435; assay: Growth inhibition of human MDA-MB-435 cells at 10 uM relative to control; format: functional; settings: read-out: GI
[12] = test system: SF-539; assay: Growth inhibition of human SF-539 cells at 10 uM relative to control; format: functional; settings: read-out: GI
[13] = test system: NCI-H226; assay: Growth inhibition of human NCI-H226 cells at 10 uM relative to control; format: functional; settings: read-out: GI
[14] = test system: MDA-MB-231; assay: Growth inhibition of human MDA-MB-231 cells at 10 uM relative to control; format: functional; settings: read-out: GI
[15] = test system: SNB-19; assay: Growth inhibition of human SNB-19 cells at 10 uM relative to control; format: functional; settings: read-out: GI
[16] = test system: HCT-116; assay: Growth inhibition of human HCT-116 cells at 10 uM relative to control; format: functional; settings: read-out: GI
[17] = test system: CCRF-CEM; assay: Growth inhibition of human CCRF-CEM cells at 10 uM relative to control; format: functional; settings: read-out: GI
[18] = test system: COLO 205; assay: Growth inhibition of human COLO 205 cells at 10 uM relative to control; format: functional; settings: read-out: GI
[19] = test system: NCI-H460; assay: Growth inhibition of human NCI-H460 cells at 10 uM relative to control; format: functional; settings: read-out: GI
[20] = test system: OVCAR-4; assay: Growth inhibition of human OVCAR-4 cells at 10 uM relative to control; format: functional; settings: read-out: GI
[21] = test system: RPMI-8226; assay: Growth inhibition of human RPMI-8226 cells at 10 uM relative to control; format: functional; settings: read-out: GI
[22] = test system: OVCAR-5; assay: Growth inhibition of human OVCAR-5 cells at 10 uM relative to control; format: functional; settings: read-out: GI
[23] = test system: NCI-H23; assay: Growth inhibition of human NCI-H23 cells at 10 uM relative to control; format: functional; settings: read-out: GI
[24] = test system: SN12C; assay: Growth inhibition of human SN12C cells at 10 uM relative to control; format: functional; settings: read-out: GI
[25] = test system: KM12; assay: Growth inhibition of human KM12 cells at 10 uM relative to control; format: functional; settings: read-out: GI
[26] = test system: NCI/ADR-RES; assay: Growth inhibition of human NCI/ADR-RES cells at 10 uM relative to control; format: functional; settings: read-out: GI
[27] = test system: SK-MEL-28; assay: Growth inhibition of human SK-MEL-28 cells at 10 uM relative to control; format: functional; settings: read-out: GI
[28] = test system: T47D; assay: Growth inhibition of human T47D cells at 10 uM relative to control; format: functional; settings: read-out: GI
[29] = test system: K562; assay: Growth inhibition of human K562 cells at 10 uM relative to control; format: functional; settings: read-out: GI
[30] = test system: UACC-257; assay: Growth inhibition of human UACC-257 cells at 10 uM relative to control; format: functional; settings: read-out: GI
[31] = test system: BT-549; assay: Growth inhibition of human BT-549 cells at 10 uM relative to control; format: functional; settings: read-out: GI
[32] = test system: UACC-62; assay: Growth inhibition of human UACC-62 cells at 10 uM relative to control; format: functional; settings: read-out: GI
[33] = test system: A549; assay: Growth inhibition of human A549 cells at 10 uM relative to control; format: functional; settings: read-out: GI
[34] = test system: SW-620; assay: Growth inhibition of human SW-620 cells at 10 uM relative to control; format: functional; settings: read-out: GI
[35] = test system: SF-295; assay: Growth inhibition of human SF-295 cells at 10 uM relative to control; format: functional; settings: read-out: GI
[36] = test system: SK-MEL-5; assay: Growth inhibition of human SK-MEL-5 cells at 10 uM relative to control; format: functional; settings: read-out: GI
[37] = test system: RXF 393; assay: Growth inhibition of human RXF 393 cells at 10 uM relative to control; format: functional; settings: read-out: GI
[38] = test system: SR; assay: Growth inhibition of human SR cells at 10 uM relative to control; format: functional; settings: read-out: GI
[39] = test system: NCI-H522; assay: Growth inhibition of human NCI-H522 cells at 10 uM relative to control; format: functional; settings: read-out: GI
[40] = test system: LOX IMVI; assay: Growth inhibition of human LOX IMVI cells at 10 uM relative to control; format: functional; settings: read-out: GI
[41] = test system: SF-268; assay: Growth inhibition of human SF-268 cells at 10 uM relative to control; format: functional; settings: read-out: GI
[42] = test system: HL-60(TB); assay: Growth inhibition of human HL-60(TB) cells at 10 uM relative to control; format: functional; settings: read-out: GI
[43] = test system: 786-0; assay: Growth inhibition of human 786-0 cells at 10 uM relative to control; format: functional; settings: read-out: GI
[44] = test system: IGROV-1; assay: Growth inhibition of human IGROV-1 cells at 10 uM relative to control; format: functional; settings: read-out: GI
[45] = test system: PC-3; assay: Growth inhibition of human PC-3 cells at 10 uM relative to control; format: functional; settings: read-out: GI
[46] = test system: CAKI-1; assay: Growth inhibition of human CAKI-1 cells at 10 uM relative to control; format: functional; settings: read-out: GI
[47] = test system: Malme-3M; assay: Growth inhibition of human Malme-3M cells at 10 uM relative to control; format: functional; settings: read-out: GI
[48] = test system: A498; assay: Growth inhibition of human A498 cells at 10 uM relative to control; format: functional; settings: read-out: GI
[49] = test system: DU-145; assay: Growth inhibition of human DU-145 cells at 10 uM relative to control; format: functional; settings: read-out: GI
[50] = test system: HT-29; assay: Growth inhibition of human HT-29 cells at 10 uM relative to control; format: functional; settings: read-out: GI
[51] = test system: OVCAR-8; assay: Growth inhibition of human OVCAR-8 cells at 10 uM relative to control; format: functional; settings: read-out: GI
[52] = target: DNA; assay: Displacement of methyl green from DNA (unknown origin) assessed as DNA intercalation after 24 hrs by colorimetric assay; format: nucleic-acid assay
[53] = test system: Hs-578T; assay: Growth inhibition of human Hs-578T cells at 10 uM relative to control; format: functional; settings: read-out: GI
[54] = test system: NCI-H322M; assay: Growth inhibition of human NCI-H322M cells at 10 uM relative to control; format: functional; settings: read-out: GI
[55] = test system: SK-MEL-2; assay: Growth inhibition of human SK-MEL-2 cells at 10 uM relative to control; format: functional; settings: read-out: GI
[56] = test system: HCT-15; assay: Growth inhibition of human HCT-15 cells at 10 uM relative to control; format: functional; settings: read-out: GI
[57] = test system: SK-OV-3; assay: Growth inhibition of human SK-OV-3 cells at 10 uM relative to control; format: functional; settings: read-out: GI
[58] = test system: HOP-92; assay: Growth inhibition of human HOP-92 cells at 10 uM relative to control; format: functional; settings: read-out: GI
[59] = test system: MOLT-4; assay: Growth inhibition of human MOLT-4 cells at 10 uM relative to control; format: functional; settings: read-out: GI

CCOC(=O)C1=CSC2=NC(/C=C/c3ccc(OC)c(OC)c3)=CC(c3ccc(OC)c(OC)c3)N12 (centres undefined)
inhibition of growth at 10 µM [1]: < 10%
inhibition of growth at 10 µM [2]: < 10%
inhibition of growth at 10 µM [3]: < 10%
inhibition of growth at 10 µM [4]: < 10%
inhibition of growth at 10 µM [5]: < 10%
inhibition of growth at 10 µM [6]: 12.8%
inhibition of growth at 10 µM [7]: 25.3%
inhibition of growth at 10 µM [8]: < 10%
inhibition of growth at 10 µM [9]: < 10%
inhibition of growth at 10 µM [10]: 20.2%
inhibition of growth at 10 µM [11]: < 10%
inhibition of growth at 10 µM [12]: < 10%
inhibition of growth at 10 µM [13]: < 10%
inhibition of growth at 10 µM [14]: < 10%
inhibition of growth at 10 µM [15]: < 10%
inhibition of growth at 10 µM [16]: < 10%
inhibition of growth at 10 µM [17]: < 10%
inhibition of growth at 10 µM [18]: < 10%
inhibition of growth at 10 µM [19]: < 10%
inhibition of growth at 10 µM [20]: < 10%
inhibition of growth at 10 µM [21]: < 10%
inhibition of growth at 10 µM [22]: < 10%
inhibition of growth at 10 µM [23]: < 10%
inhibition of growth at 10 µM [24]: < 10%
inhibition of growth at 10 µM [25]: < 10%
inhibition of growth at 10 µM [26]: < 10%
inhibition of growth at 10 µM [27]: < 10%
inhibition of growth at 10 µM [28]: < 10%
inhibition of growth at 10 µM [29]: < 10%
inhibition of growth at 10 µM [30]: < 10%
inhibition of growth at 10 µM [31]: < 10%
inhibition of growth at 10 µM [32]: < 10%
inhibition of growth at 10 µM [33]: < 10%
inhibition of growth at 10 µM [34]: < 10%
inhibition of growth at 10 µM [35]: < 10%
inhibition of growth at 10 µM [36]: < 10%
inhibition of growth at 10 µM [37]: < 10%
inhibition of growth at 10 µM [38]: < 10%
inhibition of growth at 10 µM [39]: 12%
inhibition of growth at 10 µM [40]: < 10%
inhibition of growth at 10 µM [41]: < 10%
inhibition of growth at 10 µM [42]: < 10%
inhibition of growth at 10 µM [43]: < 10%
inhibition of growth at 10 µM [44]: < 10%
inhibition of growth at 10 µM [45]: 11.3%
inhibition of growth at 10 µM [46]: < 10%
inhibition of growth at 10 µM [47]: < 10%
inhibition of growth at 10 µM [48]: < 10%
inhibition of growth at 10 µM [49]: < 10%
inhibition of growth at 10 µM [50]: < 10%
inhibition of growth at 10 µM [51]: < 10%
IC50 [52]: 29.86 µg/mL (≈ 58.7 µM)
inhibition of growth at 10 µM [53]: < 10%
inhibition of growth at 10 µM [54]: < 10%
inhibition of growth at 10 µM [55]: < 10%
inhibition of growth at 10 µM [56]: < 10%
inhibition of growth at 10 µM [57]: < 10%
inhibition of growth at 10 µM [58]: 39.5%
inhibition of growth at 10 µM [59]: < 10%
